Laboratory results: PubChem BioAssay AID190 (DTP/NCI, 2004)
“And” between values parts separate entries of the source, which are not always exact repeats. Identical values can stand only once. Toxic doses and inconclusive results are not listed.

Test system: AKR/Lw mice, AKR lymphoma ip, median survival T/C
Test: NCI In Vivo Anticancer Drug Screen. Data for tumor model Lymphoma AKR (Transplanted) (intraperitoneal) in AKR/Lw mice
Details: endpoint: median survival time, higher = longer survival
Procedure: The antitumor activity of compounds was measured in mice bearing transplantable tumors. Survival or tumor size were measured and the results are expressed as the measurement made in the treated group (T) divided by the measurement made in the vehicle treated control group (C). The tumor model used in this assay is Lymphoma AKR (Transplanted) (intraperitoneal) in AKR/Lw mice

**Q.** Which results are given for `O=P1(N(CCCl)CCCl)NCCCO1` (stereo not given)?
**A.** T/C (dose: 0.5 mg/kg/injection, schedule: Q01DX015 (ip), vehicle: saline): 117 % of control; T/C (dose: 1.0 mg/kg/injection, schedule: Q01DX015 (ip), vehicle: saline): 108 % of control; T/C (dose: 1.5 mg/kg/injection, schedule: Q04DX003 (ip), vehicle: saline): 91 % of control; T/C (dose: 2.0 mg/kg/injection, schedule: Q01DX015 (ip), vehicle: saline): 108 % of control; T/C (dose: 2.0 mg/kg/injection, schedule: Q03HX032 (ip), vehicle: saline): 119 % of control; T/C (dose: 3.0 mg/kg/injection, schedule: Q04DX003 (ip), vehicle: saline): 93 % of control; T/C (dose: 3.1 mg/kg/injection, schedule: Q01DX009 (ip), vehicle: saline): 100 % of control and 102 % of control; T/C (dose: 4.0 mg/kg/injection, schedule: Q03HX032 (ip), vehicle: saline): 117 % of control; T/C (dose: 6.0 mg/kg/injection, schedule: Q01DX009 (ip), vehicle: saline): 97 % of control; T/C (dose: 6.0 mg/kg/injection, schedule: Q04DX003 (ip), vehicle: saline): 93 % of control; T/C (dose: 6.2 mg/kg/injection, schedule: Q04DX003 (ip), vehicle: saline): 97 % of control; T/C (dose: 6.25 mg/kg/injection, schedule: Q07DX005 (ip), vehicle: saline): 112 % of control; T/C (dose: 7.0 mg/kg/injection, schedule: Q01DX015 (ip), vehicle: saline): 88 % of control; T/C (dose: 8.0 mg/kg/injection, schedule: Q03HX032 (ip), vehicle: saline): 112 % of control; T/C (dose: 10.0 mg/kg/injection, schedule: Q01DX009 (ip), vehicle: saline): 110 % of control and 118 % of control; T/C (dose: 11.0 mg/kg/injection, schedule: Q01DX015 (ip), vehicle: saline): 100 % of control; T/C (dose: 12.0 mg/kg/injection, schedule: Q04DX003 (ip), vehicle: saline): 97 % of control and 105 % of control; T/C (dose: 12.5 mg/kg/injection, schedule: Q01DX001 (ip), vehicle: saline): 92 % of control and 104 % of control and 116 % of control; T/C (dose: 20.0 mg/kg/injection, schedule: Q07DX004 (ip), vehicle: saline): 120 % of control; T/C (dose: 24.0 mg/kg/injection, schedule: Q01DX015 (ip), vehicle: saline): 100 % of control and 117 % of control; T/C (dose: 25.0 mg/kg/injection, schedule: Q07DX003 (ip), vehicle: saline): 152 % of control; T/C (dose: 25.0 mg/kg/injection, schedule: Q10DX002 (ip), vehicle: saline): 152 % of control; T/C (dose: 25.0 mg/kg/injection, schedule: Q10DX004 (ip), vehicle: saline): 119 % of control; T/C (dose: 25.0 mg/kg/injection, schedule: Q14DX003 (ip), vehicle: saline): 178 % of control; T/C (dose: 25.0 mg/kg/injection, schedule: Q14DX004 (ip), vehicle: saline): 103 % of control; T/C (dose: 33.0 mg/kg/injection, schedule: Q09DX002 (ip), vehicle: saline): 188 % of control; T/C (dose: 37.5 mg/kg/injection, schedule: Q12DX002 (ip), vehicle: saline): 172 % of control; T/C (dose: 44.0 mg/kg/injection, schedule: Q07DX004 (ip), vehicle: saline): 227 % of control; T/C (dose: 50.0 mg/kg/injection, schedule: Q09DX002 (ip), vehicle: saline): 160 % of control and 234 % of control (2×); T/C (dose: 50.0 mg/kg/injection, schedule: Q10DX002 (ip), vehicle: saline): 186 % of control; T/C (dose: 50.0 mg/kg/injection, schedule: Q12DX002 (ip), vehicle: saline): 164 % of control; T/C (dose: 50.0 mg/kg/injection, schedule: Q14DX003 (ip), vehicle: saline): 177 % of control; T/C (dose: 50.0 mg/kg/injection, schedule: Q14DX004 (ip), vehicle: saline): 173 % of control; T/C (dose: 50.0 mg/kg/injection, schedule: Q## X002 (ip), vehicle: saline): 164 % of control; T/C (dose: 65.5 mg/kg/injection, schedule: Q04DX003 (ip), vehicle: saline): 236 % of control; T/C (dose: 67.0 mg/kg/injection, schedule: Q07DX004 (ip), vehicle: saline): 232 % of control; T/C (dose: 67.0 mg/kg/injection, schedule: Q09DX002 (ip), vehicle: saline): 234 % of control; T/C (dose: 75.0 mg/kg/injection, schedule: Q01DX001 (ip), vehicle: saline): 180 % of control and 226 % of control; T/C (dose: 75.0 mg/kg/injection, schedule: Q01DX001 (ip), vehicle: water): 153 % of control; T/C (dose: 75.0 mg/kg/injection, schedule: Q04DX003 (ip), vehicle: saline): 180 % of control; T/C (dose: 75.0 mg/kg/injection, schedule: Q07DX003 (ip), vehicle: saline): 200 % of control and 210 % of control and 231 % of control; T/C (dose: 75.0 mg/kg/injection, schedule: Q07DX005 (ip), vehicle: saline): 181 % of control; T/C (dose: 75.0 mg/kg/injection, schedule: Q12DX002 (ip), vehicle: saline): 226 % of control; T/C (dose: 100.0 mg/kg/injection, schedule: Q01DX001 (ip), vehicle: saline with Tween-80): 154 % of control; T/C (dose: 100.0 mg/kg/injection, schedule: Q01DX009 (ip), vehicle: saline): 112 % of control; T/C (dose: 100.0 mg/kg/injection, schedule: Q07DX004 (ip), vehicle: saline): 200 % of control; T/C (dose: 100.0 mg/kg/injection, schedule: Q07DX005 (ip), vehicle: saline): 95 % of control; T/C (dose: 100.0 mg/kg/injection, schedule: Q09DX002 (ip), vehicle: saline): 117 % of control and 228 % of control (2×); T/C (dose: 100.0 mg/kg/injection, schedule: Q10DX004 (ip), vehicle: saline): 175 % of control; T/C (dose: 100.0 mg/kg/injection, schedule: Q14DX003 (ip), vehicle: saline): 235 % of control; T/C (dose: 125.0 mg/kg/injection, schedule: Q07DX003 (ip), vehicle: saline): 105 % of control and 110 % of control; T/C (dose: 150.0 mg/kg/injection, schedule: Q01DX001 (ip), vehicle: saline with Tween-80): 179 % of control; T/C (dose: 150.0 mg/kg/injection, schedule: Q01DX001 (ip), vehicle: water): 171 % of control and 196 % of control; T/C (dose: 150.0 mg/kg/injection, schedule: Q07DX005 (ip), vehicle: saline): 95 % of control; T/C (dose: 150.0 mg/kg/injection, schedule: Q10DX004 (ip), vehicle: saline): 209 % of control; T/C (dose: 200.0 mg/kg/injection, schedule: Q01DX009 (ip), vehicle: saline): 100 % of control; T/C (dose: 200.0 mg/kg/injection, schedule: Q09DX002 (ip), vehicle: saline): 103 % of control; T/C (dose: 200.0 mg/kg/injection, schedule: Q10DX002 (ip), vehicle: saline): 114 % of control; T/C (dose: 300.0 mg/kg/injection, schedule: Q01DX001 (ip), vehicle: water): 171 % of control and 188 % of control; T/C (dose: 500.0 mg/kg/injection, schedule: Q01DX001 (ip), vehicle: saline): 100 % of control
